Assay results from the supplement of paper PMC10307832.

Columns and labels:
Assay in all cases: relative viability (nuclei count vs DMSO), 5 days (fraction); higher = more cells survive
[1] = compound: CC1(COc2ccc3c(c2)ncn3-c2ccc3cccc(N4CCC(N)CC4)c3n2)COC1 [Crenolanib] + CC(=O)c1c(C)c2cnc(Nc3ccc(N4CCNCC4)cn3)nc2n(C2CCCC2)c1=O [Palbociclib] (partner 0.5 µM)
Procedure, shortened: (§1)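 Lung cancer cell lines, seeded in 1536-well plates, were treated the following day by pin tool with a single drug or with five library-drug doses (not always all listed) in √10 steps on top of a fixed anchor-drug dose. Cells were fixed and nuclei stained in one step after 5 days, and nuclei were counted. Relative viability is the nuclei count for treated wells divided by that for vehicle wells, reported as medians of duplicate plates.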

[2] = compound: O=C1NC(=O)[C@@H](c2cn3c4c(cccc24)CCC3)[C@@H]1c1c[nH]c2ccccc12 [Tivantinib] + CC(=O)c1c(C)c2cnc(Nc3ccc(N4CCNCC4)cn3)nc2n(C2CCCC2)c1=O [Palbociclib] (partner 0.5 µM)
Procedure, shortened: as §1

[3] = compound: CC1(COc2ccc3c(c2)ncn3-c2ccc3cccc(N4CCC(N)CC4)c3n2)COC1 [Crenolanib] + NC(=O)Nc1cc(-c2cccc(F)c2)sc1C(=O)N[C@H]1CCCNC1 [AZD7762] (partner 0.2 µM)
Procedure, shortened: as §1

[4] = compound: CC1(COc2ccc3c(c2)ncn3-c2ccc3cccc(N4CCC(N)CC4)c3n2)COC1 [Crenolanib] + CCNC(=O)c1noc(-c2cc(C(C)C)c(O)cc2O)c1-c1ccc(CN2CCOCC2)cc1 [Luminespib] (partner 0.01 µM)
Procedure, shortened: as §1

Row | Cell Line | relative viability ([1]; first compound 0.01 µM) | relative viability ([1]; first compound 0.03162 µM) | relative viability ([1]; first compound 0.1 µM) | relative viability ([1]; first compound 0.3162 µM) | relative viability ([1]; first compound 1 µM) | relative viability ([2]; first compound 0.01 µM) | relative viability ([2]; first compound 0.03162 µM) | relative viability ([2]; first compound 0.1 µM) | relative viability ([2]; first compound 0.3162 µM) | relative viability ([3]; first compound 0.01 µM) | relative viability ([3]; first compound 0.03162 µM) | relative viability ([3]; first compound 0.1 µM) | relative viability ([3]; first compound 0.3162 µM) | relative viability ([3]; first compound 1 µM) | relative viability ([4]; first compound 0.01 µM) | relative viability ([4]; first compound 0.03162 µM) | relative viability ([4]; first compound 0.1 µM) | relative viability ([4]; first compound 0.3162 µM) | relative viability ([4]; first compound 1 µM)
1 | NCI-H1915 | 0.513 | 0.57 | 0.507 | 0.522 | 0.389 | 0.527 | 0.446 | 0.544 | 0.58 | 0.745 | 0.74 | 0.688 | 0.793 | 0.585 | 0.787 | 0.875 | 0.757 | 0.857 | 0.803
2 | LOU-NH91 | 0.524 | 0.481 | 0.518 | 0.539 | 0.548 | 0.557 | 0.543 | 0.527 | 0.541 | 0.765 | 0.762 | 0.782 | 0.817 | 0.697 | 0.326 | 0.304 | 0.33 | 0.303 | 0.317
3 | NCI-H1734 | 0.515 | 0.369 | 0.372 | 0.338 | 0.376 | 0.384 | 0.319 | 0.336 | 0.366 | 0.569 | 0.61 | 0.567 | 0.756 | 0.659 | 0.174 | 0.171 | 0.191 | 0.173 | 0.291
4 | LCLC-97TM1 | 0.244 | 0.183 | 0.268 | 0.277 | 0.232 | 0.271 | 0.257 | 0.172 | 0.225 | 0.316 | 0.219 | 0.41 | 0.561 | 0.277 | 0.777 | 0.749 | 0.792 | 0.844 | 0.753
